Source: PubChem BioAssay (NCI)
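Cultured in 96-well plates, cells were exposed to test compound for 48 hours across five concentrations. GI50: concentration for 50% inhibition of growth. The concentration for full growth arrest is given as TGI.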

How the values were obtained:
Assay in all cases: DTP human tumour cell line panel, 48 h
786-0 renal = tested on: 786-0 renal
A498 renal = tested on: A498 renal
A549 NSCLC = tested on: A549 NSCLC
ACHN renal = tested on: ACHN renal
BT-549 breast = tested on: BT-549 breast
CAKI-1 renal = tested on: CAKI-1 renal
CCRF-CEM leukemia = tested on: CCRF-CEM leukemia
COLO 205 colon = tested on: COLO 205 colon
DU-145 prostate = tested on: DU-145 prostate
EKVX NSCLC = tested on: EKVX NSCLC
HCC-2998 colon = tested on: HCC-2998 colon
HCT-116 colon = tested on: HCT-116 colon
HCT-15 colon = tested on: HCT-15 colon
HL-60(TB) leukemia = tested on: HL-60(TB) leukemia
HOP-62 NSCLC = tested on: HOP-62 NSCLC
HOP-92 NSCLC = tested on: HOP-92 NSCLC
HS 578T breast = tested on: HS 578T breast
HT29 colon = tested on: HT29 colon
IGROV1 ovarian = tested on: IGROV1 ovarian
K-562 leukemia = tested on: K-562 leukemia
KM12 colon = tested on: KM12 colon
LOX IMVI melanoma = tested on: LOX IMVI melanoma
M14 melanoma = tested on: M14 melanoma
MALME-3M melanoma = tested on: MALME-3M melanoma
MCF7 breast = tested on: MCF7 breast
MDA-MB-231 breast = tested on: MDA-MB-231 breast
MDA-MB-435 = tested on: MDA-MB-435
MDA-MB-468 breast = tested on: MDA-MB-468 breast
MOLT-4 leukemia = tested on: MOLT-4 leukemia
NCI-H226 lung = tested on: NCI-H226 lung
NCI-H23 lung = tested on: NCI-H23 lung
NCI-H460 lung = tested on: NCI-H460 lung
NCI-H522 lung = tested on: NCI-H522 lung
OVCAR-3 ovarian = tested on: OVCAR-3 ovarian
OVCAR-4 ovarian = tested on: OVCAR-4 ovarian
OVCAR-5 ovarian = tested on: OVCAR-5 ovarian
OVCAR-8 ovarian = tested on: OVCAR-8 ovarian
PC-3 prostate = tested on: PC-3 prostate
RPMI-8226 leukemia = tested on: RPMI-8226 leukemia
RXF 393 renal = tested on: RXF 393 renal
SF-268 CNS = tested on: SF-268 CNS
SF-295 CNS = tested on: SF-295 CNS
SF-539 CNS = tested on: SF-539 CNS
SK-MEL-2 melanoma = tested on: SK-MEL-2 melanoma
SK-MEL-28 melanoma = tested on: SK-MEL-28 melanoma
SK-MEL-5 melanoma = tested on: SK-MEL-5 melanoma
SK-OV-3 ovarian = tested on: SK-OV-3 ovarian
SN12C renal = tested on: SN12C renal
SNB-19 CNS = tested on: SNB-19 CNS
SR leukemia = tested on: SR leukemia
SW-620 colon = tested on: SW-620 colon
T-47D breast = tested on: T-47D breast
TK-10 renal = tested on: TK-10 renal
U251 CNS = tested on: U251 CNS
UACC-257 melanoma = tested on: UACC-257 melanoma
UACC-62 melanoma = tested on: UACC-62 melanoma
UO-31 renal = tested on: UO-31 renal

With CN(C)c1nc(NCCNS(=O)(=O)c2ccc(C(=O)/C=C/c3ccc(F)cc3)cc2)nc(N2CCOCC2)n1 the GI50 (786-0 renal) was 14.5 µM, the TGI (786-0 renal) was 28.7 µM and the GI50 (A498 renal) was 11.9 µM. The TGI (A498 renal) was 24.4 µM, the GI50 (A549 NSCLC) was 13.7 µM and the TGI (A549 NSCLC) was 27.9 µM. The GI50 (ACHN renal) was 13.1 µM, the TGI (ACHN renal) was 26 µM and the GI50 (BT-549 breast) was 15.1 µM. For the same molecule, the TGI (BT-549 breast) was 29.2 µM, the GI50 (CAKI-1 renal) was 9.5 µM and the TGI (CAKI-1 renal) was 21.9 µM. For the same molecule, the GI50 (CCRF-CEM leukemia) was 6.58 µM, the TGI (CCRF-CEM leukemia) was 39.1 µM and the GI50 (COLO 205 colon) was 14.6 µM. The TGI (COLO 205 colon) was 30.2 µM, the GI50 (DU-145 prostate) was 14.4 µM and the TGI (DU-145 prostate) was 27.8 µM. It also gave a GI50 (EKVX NSCLC) of 14.4 µM, a TGI (EKVX NSCLC) of 27.8 µM and a GI50 (HCC-2998 colon) of 16 µM. The TGI (HCC-2998 colon) was 29.9 µM, the GI50 (HCT-116 colon) was 2.29 µM and the TGI (HCT-116 colon) was 5.25 µM. The GI50 (HCT-15 colon) was 2.15 µM, the TGI (HCT-15 colon) was 4.92 µM and the GI50 (HL-60(TB) leukemia) was 14.7 µM. It also gave a TGI (HL-60(TB) leukemia) of over 100 µM, a GI50 (HOP-62 NSCLC) of 16.1 µM and a TGI (HOP-62 NSCLC) of 31.5 µM. The GI50 (HOP-92 NSCLC) was 12.7 µM, the TGI (HOP-92 NSCLC) was 28.5 µM and the GI50 (HS 578T breast) was 14.6 µM. For the same molecule, the TGI (HS 578T breast) was 54.6 µM, the GI50 (HT29 colon) was 2.85 µM and the TGI (HT29 colon) was 8.39 µM. It also gave a GI50 (IGROV1 ovarian) of 2.27 µM, a TGI (IGROV1 ovarian) of 6.18 µM and a GI50 (K-562 leukemia) of 3.7 µM. The TGI (K-562 leukemia) was over 100 µM, the GI50 (KM12 colon) was 13.4 µM and the TGI (KM12 colon) was 30.6 µM. It also gave a GI50 (LOX IMVI melanoma) of 1.63 µM, a TGI (LOX IMVI melanoma) of 3.17 µM and a GI50 (M14 melanoma) of 15 µM. For the same molecule, the TGI (M14 melanoma) was 30.5 µM, the GI50 (MALME-3M melanoma) was 14.6 µM and the TGI (MALME-3M melanoma) was 28.2 µM. The GI50 (MCF7 breast) was 2.99 µM, the TGI (MCF7 breast) was 11.2 µM and the GI50 (MDA-MB-231 breast) was 12.3 µM. For the same molecule, the TGI (MDA-MB-231 breast) was 25.3 µM, the GI50 (MDA-MB-435) was 11.6 µM and the TGI (MDA-MB-435) was 24.6 µM. It also gave a GI50 (MDA-MB-468 breast) of 8.08 µM, a TGI (MDA-MB-468 breast) of 22.6 µM and a GI50 (MOLT-4 leukemia) of 4.69 µM. For the same molecule, the TGI (MOLT-4 leukemia) was over 100 µM, the GI50 (NCI-H226 lung) was 12.3 µM and the TGI (NCI-H226 lung) was 28.2 µM. For the same molecule, the GI50 (NCI-H23 lung) was 14.6 µM, the TGI (NCI-H23 lung) was 28.1 µM and the GI50 (NCI-H460 lung) was 15.7 µM. For the same molecule, the TGI (NCI-H460 lung) was 33 µM, the GI50 (NCI-H522 lung) was 13.3 µM and the TGI (NCI-H522 lung) was 26.6 µM. The GI50 (OVCAR-3 ovarian) was 14.6 µM, the TGI (OVCAR-3 ovarian) was 28.5 µM and the GI50 (OVCAR-4 ovarian) was 11.9 µM. It also gave a TGI (OVCAR-4 ovarian) of 24.7 µM, a GI50 (OVCAR-5 ovarian) of 13.6 µM and a TGI (OVCAR-5 ovarian) of 26.8 µM. The GI50 (OVCAR-8 ovarian) was 14.7 µM, the TGI (OVCAR-8 ovarian) was 28.2 µM and the GI50 (PC-3 prostate) was 11.2 µM. For the same molecule, the TGI (PC-3 prostate) was 25.5 µM, the GI50 (RPMI-8226 leukemia) was 1.91 µM and the TGI (RPMI-8226 leukemia) was 5.07 µM. It also gave a GI50 (RXF 393 renal) of 8.82 µM, a TGI (RXF 393 renal) of 21.2 µM and a GI50 (SF-268 CNS) of 15 µM. It also gave a TGI (SF-268 CNS) of 37.5 µM, a GI50 (SF-295 CNS) of 11.3 µM and a TGI (SF-295 CNS) of 23.8 µM. For the same molecule, the GI50 (SF-539 CNS) was 13.2 µM, the TGI (SF-539 CNS) was 25.9 µM and the GI50 (SK-MEL-2 melanoma) was 13.7 µM. For the same molecule, the TGI (SK-MEL-2 melanoma) was 26.8 µM, the GI50 (SK-MEL-28 melanoma) was 14.9 µM and the TGI (SK-MEL-28 melanoma) was 28.2 µM. The GI50 (SK-MEL-5 melanoma) was 15.7 µM, the TGI (SK-MEL-5 melanoma) was 29.2 µM and the GI50 (SK-OV-3 ovarian) was 13.8 µM. It also gave a TGI (SK-OV-3 ovarian) of 27.6 µM, a GI50 (SN12C renal) of 12 µM and a TGI (SN12C renal) of 24.4 µM. The GI50 (SNB-19 CNS) was 13.4 µM, the TGI (SNB-19 CNS) was 26.5 µM and the GI50 (SR leukemia) was 3.45 µM. It also gave a TGI (SR leukemia) of over 100 µM, a GI50 (SW-620 colon) of 3.39 µM and a TGI (SW-620 colon) of 12.3 µM. It also gave a GI50 (T-47D breast) of 11.9 µM, a TGI (T-47D breast) of 33.5 µM and a GI50 (TK-10 renal) of 15.3 µM. It also gave a TGI (TK-10 renal) of 28.7 µM, a GI50 (U251 CNS) of 4.74 µM and a TGI (U251 CNS) of 16.7 µM. The GI50 (UACC-257 melanoma) was 15.5 µM, the TGI (UACC-257 melanoma) was 29.2 µM and the GI50 (UACC-62 melanoma) was 10.8 µM. The TGI (UACC-62 melanoma) was 23 µM, the GI50 (UO-31 renal) was 11 µM and the TGI (UO-31 renal) was 23 µM.
